This is an account of results in US10806785B2, “Immunomodulator compounds and methods of use” (Incyte Corporation, priority 2016, dated 2020).

The target in the experiment is PD-1/PD-L1 (Homo sapiens (Human), UniProt Q9NZQ7). Kind of experiment: PD-1/PD-L1 binding assay (HTRF). The procedure, abridged: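 Fc-tagged human PD-1 (25-167) and His-tagged PD-L1 (19-238), listed as […] and 10 nM final, preincubated 40 min with inhibitors in PBS pH 7.4, 0.05% Tween-20, 0.1% BSA, 1% DMSO, 25 °C. Eu anti-IgG/APC anti-His added, 60 min, 665/620 nm HTRF ratio; IC50 fitted from percent control activity.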
For orientation: Time-resolved FRET reads energy transfer from a long-lived donor to a nearby acceptor.

PD-1/PD-L1, sequence (Q9NZQ7 19-238): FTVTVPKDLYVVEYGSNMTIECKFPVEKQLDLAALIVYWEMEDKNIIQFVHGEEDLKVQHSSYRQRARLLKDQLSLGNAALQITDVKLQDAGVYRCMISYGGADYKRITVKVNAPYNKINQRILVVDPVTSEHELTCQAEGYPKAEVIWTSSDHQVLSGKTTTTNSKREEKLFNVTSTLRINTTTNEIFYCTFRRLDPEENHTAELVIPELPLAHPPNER

By IC50 is commonly meant the midpoint of a concentration-inhibition curve. A low value points to greater potency. As for `Cn1c(C(=O)Nc2cccc(-c3cccc(NC(=O)c4nc5c(n4C)CCN(C4CCC(C)(C(=O)O)CC4)C5)c3Cl)c2Cl)nc2c1CCN(C1CCOCC1)C2` (stereo not drawn) [Example 98, 4-(2-((2,2′-dichloro-3′-(1-methyl-5-(tetrahydro-2H-pyran-4-yl)-4,5,6,7-tetrahydro-1H-imidazo[4,5-c]pyridine-2-carboxamido)-[1,1′-biphenyl]-3-yl)carbamoyl)-1-methyl-1,4,6,7-tetrahydro-5H-imidazo[4,5-c]pyridin-5-yl)-1-methylcyclohexane-1-carboxylic acid], the half-inhibitory concentration (IC50) is no more than 10 nM.

For `CN1CCc2c(nc(C(=O)Nc3cccc(-c4cccc(NC(=O)c5nc6c(n5C)CCN(C5CCC(C)(C(=O)O)CC5)C6)c4Cl)c3Cl)n2C)C1` (stereo not drawn) [Example 80, 4-(2-((2,2′-dichloro-3′-(1,5-dimethyl-4,5,6,7-tetrahydro-1H-imidazo[4,5-c]pyridine-2-carboxamido)-[1,1′-biphenyl]-3-yl)carbamoyl)-1-methyl-1,4,6,7-tetrahydro-5H-imidazo[4,5-c]pyridin-5-yl)-1-methylcyclohexane-1-carboxylic acid], the IC50 was no more than 10 nM.

On to `Cc1c(NC(=O)c2nc3c(n2C)CCN(C2CCOCC2)C3)cccc1-c1cccc(NC(=O)c2nc3c(n2C)CCN(C2CCC(C)(C(=O)O)CC2)C3)c1Cl` (single isomer, unassigned) [142 (compound 142-1), 4-(2-((2-chloro-2′-methyl-3′-(1-methyl-5-(tetrahydro-2H-pyran-4-yl)-4,5,6,7-tetrahydro-1H-imidazo[4,5-c]pyridine-2-carboxamido)-[1,1′-biphenyl]-3-yl)carbamoyl)-1-methyl-1,4,6,7-tetrahydro-5H-imidazo[4,5-c]pyridin-5-yl)-1-methylcyclohexane-1-carboxylic acid], for which the IC50 is no more than 10 nM.

In turn, `Cc1c(-c2nc3c(o2)CN(C(=O)CN(C)C)C3)cccc1-c1cccc(NC(=O)c2nc3c(n2C)CCN(C2CCC(C)(C(=O)O)CC2)C3)c1Cl` (stereo not drawn) [Compound 168, 4-(2-((2-chloro-3′-(5-(dimethylglycyl)-5,6-dihydro-4H-pyrrolo[3,4-d]oxazol-2-yl)-2′-methyl-[1,1′-biphenyl]-3-yl)carbamoyl)-1-methyl-1,4,6,7-tetrahydro-5H-imidazo[4,5-c]pyridin-5-yl)-1-methylcyclohexane-1-carboxylic acid] displayed an IC50 of no more than 10 nM.

`Cc1c(NC(=O)c2nc3c(n2C)CCN(C2CCN(S(C)(=O)=O)CC2)C3)cccc1-c1cccc(NC(=O)c2nc3c(n2C)CCN(C)C3)c1Cl` [Example 28, N-(2-chloro-2′-methyl-3′-(1-methyl-5-(1-(methylsulfonyl)piperidin-4-yl)-4,5,6,7-tetrahydro-1H-imidazo[4,5-c]pyridine-2-carboxamido)biphenyl-3-yl)-1,5-dimethyl-4,5,6,7-tetrahydro-1H-imidazo[4,5-c]pyridine-2-carboxamide] displayed an IC50 of no more than 10 nM.

`Cn1c(C(=O)Nc2cccc(-c3cccc(NC(=O)c4nc5c(n4C)CCN(CC[C@H]4CC[C@H](C(=O)O)CC4)C5)c3Cl)c2Cl)nc2c1CCNC2` [Example 85, trans-4-(2-(2-((2,2′-dichloro-3′-(1-methyl-4,5,6,7-tetrahydro-1H-imidazo[4,5-c]pyridine-2-carboxamido)-[1,1′-biphenyl]-3-yl)carbamoyl)-1-methyl-1,4,6,7-tetrahydro-5H-imidazo[4,5-c]pyridin-5-yl)ethyl)cyclohexane-1-carboxylic acid] returned an IC50 of no more than 10 nM.

In turn, `CCC1(C(=O)O)CCC(N2CCc3c(nc(C(=O)Nc4cccc(-c5cccc(NC(=O)c6nc7c(n6C)CCN(C)C7)c5C)c4Cl)n3C)C2)CC1` (stereo not drawn) [Example 121, 4-(2-((2-chloro-3′-(1,5-dimethyl-4,5,6,7-tetrahydro-1H-imidazo[4,5-c]pyridine-2-carboxamido)-2′-methyl-[1,1′-biphenyl]-3-yl)carbamoyl)-1-methyl-1,4,6,7-tetrahydro-5H-imidazo[4,5-c]pyridin-5-yl)-1-ethylcyclohexane-1-carboxylic acid] displayed an IC50 of no more than 10 nM.

`Cc1c(-c2nc3c(o2)CN(C(=O)CN2CC[C@](C)(C(=O)O)C2)C3)cccc1-c1cccc(NC(=O)c2nc3c(n2C)CCN(C)C3)c1Cl` [Compound 163, (S)-1-(2-(2-(2′-chloro-3′-(1,5-dimethyl-4,5,6,7-tetrahydro-1H-imidazo[4,5-c]pyridine-2-carboxamido)-2-methyl-[1,1′-biphenyl]-3-yl)-4,6-dihydro-5H-pyrrolo[3,4-d]oxazol-5-yl)-2-oxoethyl)-3-methylpyrrolidine-3-carboxylic acid] had an IC50 of no more than 10 nM.

`Cc1c(NC(=O)c2nc3c(n2C)CCN(C2CCC(C)(C(=O)O)CC2)C3)cccc1-c1cccc(NC(=O)c2nc3c(n2C)CCN(C2CCOCC2)C3)c1Cl` (stereo not drawn) [Example 108, 4-(2-((2′-chloro-2-methyl-3′-(1-methyl-5-(tetrahydro-2H-pyran-4-yl)-4,5,6,7-tetrahydro-1H-imidazo[4,5-c]pyridine-2-carboxamido)-[1,1′-biphenyl]-3-yl)carbamoyl)-1-methyl-1,4,6,7-tetrahydro-5H-imidazo[4,5-c]pyridin-5-yl)-1-methylcyclohexane-1-carboxylic acid] came in with an IC50 of no more than 10 nM.

As to `Cc1c(NC(=O)c2nc3c(n2C)CCN(C2CCOCC2)C3)cccc1-c1cccc(NC(=O)c2nc3c(n2C)CCN(C2CCC(C(=O)O)CC2)C3)c1Cl` (stereo not drawn) [Example 125, 4-(2-((2-chloro-2′-methyl-3′-(1-methyl-5-(tetrahydro-2H-pyran-4-yl)-4,5,6,7-tetrahydro-1H-imidazo[4,5-c]pyridine-2-carboxamido)-[1,1′-biphenyl]-3-yl)carbamoyl)-1-methyl-1,4,6,7-tetrahydro-5H-imidazo[4,5-c]pyridin-5-yl)cyclohexane-1-carboxylic acid], the IC50 was no more than 10 nM.

`Cc1c(NC(=O)c2cc(CN3CC[C@@H](C(=O)O)C3)cn(C)c2=O)cccc1-c1cccc(NC(=O)c2nc3c(n2C)CCN(C)C3)c1Cl` [Example 49, (R)-1-((5-(2′-chloro-3′-(1,5-dimethyl-4,5,6,7-tetrahydro-1H-imidazo[4,5-c]pyridine-2-carboxamido)-2-methylbiphenyl-3-ylcarbamoyl)-1-methyl-6-oxo-1,6-dihydropyridin-3-yl)methyl)pyrrolidine-3-carboxylic acid] registered an IC50 of no more than 10 nM.

On to `Cn1c(C(=O)Nc2cccc(-c3cccc(NC(=O)c4nc5c(n4C)CCN(C4CCC(C(=O)O)CC4)C5)c3Cl)c2Cl)nc2c1CCN(C1CCOCC1)C2` (stereo not drawn) [Example 97, 4-(2-((2,2′-dichloro-3′-(1-methyl-5-(tetrahydro-2H-pyran-4-yl)-4,5,6,7-tetrahydro-1H-imidazo[4,5-c]pyridine-2-carboxamido)-[1,1′-biphenyl]-3-yl)carbamoyl)-1-methyl-1,4,6,7-tetrahydro-5H-imidazo[4,5-c]pyridin-5-yl)cyclohexane-1-carboxylic acid], for which the IC50 was no more than 10 nM.

On to `CN1CCc2c(nc(C(=O)Nc3cccc(-c4cccc(NC(=O)c5nc6c(n5C)CCN(CC57CCC(C(=O)O)(CC5)C7)C6)c4Cl)c3Cl)n2C)C1` [Example 84, 4-((2-((2,2′-dichloro-3′-(1,5-dimethyl-4,5,6,7-tetrahydro-1H-imidazo[4,5-c]pyridine-2-carboxamido)-[1,1′-biphenyl]-3-yl)carbamoyl)-1-methyl-1,4,6,7-tetrahydro-5H-imidazo[4,5-c]pyridin-5-yl)methyl)bicyclo[2.2.1]heptane-1-carboxylic acid], for which the IC50 was no more than 10 nM.

For `CCN(C)CC(=O)N1Cc2nc(-c3cccc(-c4cccc(NC(=O)c5nc6c(n5C)CCN(C5CCC(C)(C(=O)O)CC5)C6)c4C)c3C)oc2C1` (stereo not drawn) [Compound 173, 4-(2-((3′-(5-(N-ethyl-N-methylglycyl)-5,6-dihydro-4H-pyrrolo[3,4-d]oxazol-2-yl)-2,2′-dimethyl-[1,1′-biphenyl]-3-yl)carbamoyl)-1-methyl-1,4,6,7-tetrahydro-5H-imidazo[4,5-c]pyridin-5-yl)-1-methylcyclohexane-1-carboxylic acid], the IC50 is no more than 10 nM.

`Cc1c(NC(=O)c2cc(CN3CC[C@@H](O)C3)cn(C)c2=O)cccc1-c1cccc(NC(=O)c2nc3c(n2C)CCN(C[C@H](C)O)C3)c1Cl` [Example 51, N-(2-chloro-3′-(5-(((R)-3-hydroxypyrrolidin-1-yl)methyl)-1-methyl-2-oxo-1,2-dihydropyridine-3-carboxamido)-2′-methylbiphenyl-3-yl)-5-((S)-2-hydroxypropyl)-1-methyl-4,5,6,7-tetrahydro-1H-imidazo[4,5-c]pyridine-2-carboxamide] registered an IC50 of no more than 10 nM.

`Cc1c(-c2nc3c(s2)CN(C(=O)CN(C)C)C3)cccc1-c1cccc(NC(=O)c2nc3c(n2C)CCN(C)C3)c1Cl` [Example 53, N-(2-chloro-3′-(5-(2-(dimethylamino)acetyl)-5,6-dihydro-4H-pyrrolo[3,4-d]thiazol-2-yl)-2′-methylbiphenyl-3-yl)-1,5-dimethyl-4,5,6,7-tetrahydro-1H-imidazo[4,5-c]pyridine-2-carboxamide] had an IC50 of no more than 10 nM.

`Cn1c(C(=O)Nc2cccc(-c3cccc(NC(=O)c4nc5c(n4C)CCN(C[C@H]4CC[C@H](C(=O)O)CC4)C5)c3Cl)c2Cl)nc2c1CCNC2` [Example 61, trans-4-((2-(2,2′-dichloro-3′-(1-methyl-4,5,6,7-tetrahydro-1H-imidazo[4,5-c]pyridine-2-carboxamido)biphenyl-3-ylcarbamoyl)-1-methyl-6,7-dihydro-1H-imidazo[4,5-c]pyridin-5(4H)-yl)methyl)cyclohexane-1-carboxylic acid] registered a half-maximal inhibitory concentration (IC50) of no more than 10 nM.

`Cc1c(NC(=O)c2nc3c(n2C)CCN(C[C@H]2CC[C@H](C(=O)O)CC2)C3)cccc1-c1cccc(NC(=O)c2nc3c(n2C)CCN(C2CCOCC2)C3)c1Cl` [Example 110, trans-4-((2-((2′-chloro-2-methyl-3′-(1-methyl-5-(tetrahydro-2H-pyran-4-yl)-4,5,6,7-tetrahydro-1H-imidazo[4,5-c]pyridine-2-carboxamido)-[1,1′-biphenyl]-3-yl)carbamoyl)-1-methyl-1,4,6,7-tetrahydro-5H-imidazo[4,5-c]pyridin-5-yl)methyl)cyclohexane-1-carboxylic acid] registered an IC50 of no more than 10 nM.
